In patent publication US20250319019A1, “BUCCOMUCOADHESIVE PATCH-BASED DRUG DELIVERY SYSTEM FOR TACROLIMUS” (priority 2022, published 2025):

Columns and labels:
[1] = poor and variable, intestinal absorption; background statement; cited from earlier work
[2] = In-vivo pharmacokinetic evaluation, single dose; set-up: species or system New Zealand White rabbits; details: New Zealand White, whole blood
Procedure: The study was performed in New Zealand White rabbits as per the CPCSEA guidance. Overnight fasted animals were anaesthetised with Ketamine (30-40 mg/kg) and Xylazine (10 mg/kg) and 1 mg BAPTac patch was administered on the buccal surface of the oral cavity. The control group was administered 1 mg tacrolimus in PBS and 30% Ethanol. 0.5-0.75 ml of blood was taken from each rabbit via the marginal ear vein using 23 gauge needles through a butterfly cannula. The blood samples were collected before initiation of the treatment and after the administration of oral Tacrolimus or Tacrolimus-SLN-loaded buccal patch at time intervals of 15 min, 30 min, 1 h, 1.5 h, 2 h, 4 h, 6 h, 8 h, 12 h and 24 hours for the single dose PK study. Blood samples were collected in EDTA tubes, aliquoted and stored in amber-coloured tubes at −80° C. until quantification by LC-MS/MS.

concentration at 0.25 h ([2]; 1 mg, heading: Average Tac conc., rabbit blood, 0.25 (15 mins) after single 1 mg dose (oral or buccal patch), LC-MS/MS): 3.6 ng/mL | concentration at 0.5 h ([2]; 1 mg, heading: Average Tac conc., rabbit blood, 0.5 (30 mins) after single 1 mg dose (oral or buccal patch)): 12.3 ng/mL | concentration at 1 h ([2]; 1 mg, heading: Average Tac conc., rabbit blood, 1.0 (60 mins) after single 1 mg dose (oral or buccal patch)): 17.2 ng/mL | concentration at 1.5 h ([2]; 1 mg, heading: Average Tac conc., rabbit blood, 1.5 (90 mins) after single 1 mg dose (oral or buccal patch)): 46.9 ng/mL | concentration at 2 h ([2]; 1 mg, heading: Average Tac conc., rabbit blood, 2.0 (120 mins) after single 1 mg dose (oral or buccal patch)): 31.3 ng/mL | concentration at 4 h ([2]; 1 mg, heading: Average Tac conc., rabbit blood, 4.0 (240 mins) after single 1 mg dose (oral or buccal patch)): 14.5 ng/mL | concentration at 6 h ([2]; 1 mg, heading: Average Tac conc., rabbit blood, 6.0 (480 mins) after single 1 mg dose (oral or buccal patch)): 12.3 ng/mL | concentration at 8 h ([2]; 1 mg, heading: Average Tac conc., rabbit blood, 8.0 (640 mins) after single 1 mg dose (oral or buccal patch)): 11.8 ng/mL | concentration at 12 h ([2]; 1 mg, heading: Average Tac conc., rabbit blood, 12.0 (720 mins) after single 1 mg dose (oral or buccal patch)): 7.9 ng/mL | concentration at 24 h ([2]; 1 mg, heading: Average Tac conc., rabbit blood, 24.0 (1440 mins) after single 1 mg dose (oral or buccal patch)): 2.4 ng/mL | half-life ([2]; rabbit, single 1 mg dose (oral or buccal patch), read-out: Elimination t1/2 (converted)): 164 ± 174 min | AUC(0-t) ([2]; rabbit, single 1 mg dose (oral or buccal patch), read-out: Mean AUC0-24): 250 ± 78.2 ng·h/mL
SMILES: C=CC[C@@H]1/C=C(\C)C[C@H](C)C[C@H](OC)[C@H]2O[C@@](O)(C(=O)C(=O)N3CCCC[C@H]3C(=O)O[C@H](/C(C)=C/[C@@H]3CC[C@@H](O)[C@H](OC)C3)[C@H](C)[C@@H](O)CC1=O)[C@H](C)C[C@@H]2OC (relative stereo) [Tacrolimus, [3S[3R*[E(1S*,3S*,4S*)],4S*,5R*,8S*,9E,12R*,14R*,15S*,16R*,18S*,19S*, 26aR*]]5,6,8,11,12,13,14,15,16,17,18,19,24,25,26,26a-hexadecahydro-5,19-dihydroxy-3-[2-(4-hydroxy-3-methoxycyclohexyl)-1-methylethenyl]-14,16-dimethoxy-4,10,12,18-tetramethyl-8-(2-propenyl)-15,19-epoxy-3H-pyrido[2,1-c][1,4]oxaazacyclotricosine-1,7,20,21(4H,23H)-tetrone, monohydrate]
bioavailability (average) [1]: 25%
